Where a name gives a salt, the structure may show the parent alone.
Test system: not given
Assay: not given
Settings: not given

| Structure (SMILES) | melting point |
| --- | --- |
| COC(=O)c1cccc(CSC(=N)N)c1-c1c(CSC(=N)N)cccc1C(=O)OC (as salt: hydrobromid) [Example 2.24, dimethyl 6,6′-bis(carbamimidoylthiomethyl)biphenyl-2,2′-dicarboxylate dihydrobromide] | 222 to 225 °C |
| N=C(N)SCc1ccccc1Oc1ccc(F)cc1CSC(=N)N (as salt: hydrobromid) [Example 2.21, 2-[2-({[amino(imino)methyl]thio}methyl)-4-fluorophenoxy]benzyl imidothiocarbamate dihydrobromide] | > 220 °C |
| N=C(N)SCc1cc(F)ccc1Oc1cccc(Cl)c1CSC(=N)N (as salt: hydrobromid) [Example 2.10, 2-[2-(2-carbamimidoylsulfanylmethyl-3-chlorophenoxy)-5-fluorobenzyl]isothiourea dihydrobromide] | 204 to 206 °C |
| N=C(N)SCc1cc([N+](=O)[O-])ccc1Oc1cc(Cl)ccc1CSC(=N)N (as salt: hydrobromid) [Example 2.19, 2-[2-({[amino(imino)methyl]thio}methyl)-5-chlorophenoxy]-5-nitrobenzyl imidothiocarbamate dihydrobromide] | > 220 °C |
| N=C(N)SCc1ccccc1Oc1ccc(Cl)cc1CSC(=N)N (as salt: hydrobromid) [Example 2.16, 2-[2-({[amino(imino)methyl]thio}methyl)-4-chlorophenoxy]benzyl imidothiocarbamate dihydrobromide] | > 220 °C |
| N=C(N)SCc1ccc(Cl)cc1Oc1cc([N+](=O)[O-])ccc1CSC(=N)N (as salt: hydrobromid) [Example 2.9, 2-[2-({[amino(imino)methyl]thio}methyl)-5-chlorophenoxy]-4-nitrobenzyl imidothiocarbamate dihydrobromide] | > 220 °C |
| N=C(N)SCc1ccccc1Oc1cc(Cl)ccc1CSC(=N)N (as salt: hydrobromid) [Example 2.18, 2-[2-({[amino(imino)methyl]thio}methyl)-5-chlorophenoxy]benzyl imidothiocarbamate dihydrobromide] | > 220 °C |
| N=C(N)SCc1cccc(CSC(=N)N)c1-c1c(CSC(=N)N)cccc1CSC(=N)N (as salt: hydrobromid) [Example 2.23, biphenyl-2,2′-6,6′-tetrayltetrakis(methylene)tetracarbamimidothioate tetrahydrobromide] | 233 to 235 °C |
| N=C(N)SCc1ccccc1Oc1cccc(Cl)c1CSC(=N)N (as salt: hydrobromid) [Example 2.17, 2-[2-({[amino(imino)methyl]thio}methyl)-3-chlorophenoxy]benzyl imidothiocarbamate dihydrobromide] | 150 to 152 °C |
| N=C(N)SCc1cc(F)ccc1Oc1ccc(Cl)cc1CSC(=N)N (as salt: hydrobromid) [Example 2.11, 2-[2-(2-carbamimidoylsulfanylmethyl-4-chlorophenoxy)-5-fluorobenzyl]isothiourea dihydrobromide] | > 230 °C |
| N=C(N)SCc1cc(F)ccc1Oc1ccc([N+](=O)[O-])cc1CSC(=N)N (as salt: hydrobromid) [Example 2.14, 2-[2-({[amino(imino)methyl]thio}methyl)-4-fluorophenoxy]-5-nitrobenzyl imidothiocarbamate dihydrobromide] | > 220 °C |
| N=C(N)SCc1cc(Cl)ccc1Oc1ccc([N+](=O)[O-])cc1CSC(=N)N (as salt: hydrobromid) [Example 2.20, 2-[2-({[amino(imino)methyl]thio}methyl)-4-chlorophenoxy]-5-nitrobenzyl imidothiocarbamate dihydrobromide] | > 220 °C |

The remaining lines, values ahead:

| melting point | Structure (SMILES) |
| --- | --- |
| > 250 °C | N=C(N)SCc1ccccc1C(=O)c1cc(F)ccc1CSC(=N)N (as salt: hydrobromid) [Example 2.27, 2-(6-(amidinothiomethyl)phenyl)carbonyl-1-(amidinothiomethyl)-4-fluorobenzene dihydrobromide] |
| > 250 °C | N=C(N)SCc1ccccc1C(=O)c1cc(Cl)ccc1CSC(=N)N (as salt: hydrobromid) [Example 2.28, 2-(6-(amidinothiomethyl)phenyl)carbonyl-1-(amidinothiomethyl)-4-chlorobenzene dihydrobromide dihydrobromide] |
| > 250 °C | N=C(N)SCc1ccccc1C(=O)c1ccc(Cl)cc1CSC(=N)N (as salt: hydrobromid) [Example 2.29, 2-(6-(amidinothiomethyl)phenyl)carbonyl-1-(amidinothiomethyl)-5-chlorobenzene dihydrobromide] |
| > 250 °C | N=C(N)SCc1ccccc1C(=O)c1ccc(F)cc1CSC(=N)N (as salt: hydrobromid) [Example 2.26, 2-(6-(amidinothiomethyl)phenyl)carbonyl-1-(amidinothiomethyl)-5-fluorobenzene dihydrobromide] |
| > 220 °C | NC(N)=NC(=O)c1ccccc1Sc1ccccc1C(=O)N=C(N)N [Example 4, 2,2′-thiobis(N-(diaminomethylene)benzamide)] |
| 155 to 157 °C | N#CN=C(N)CCCc1ccccc1Sc1ccccc1CCCC(N)=NC#N [Example 7.2, 2-(6-(3-(cyanoamidino)propyl)phenyl)thio-1-(3-(cyanoamidino)propyl)benzene] |
| 188 to 190 °C | N#CN=C(N)CCc1ccccc1Sc1ccccc1CCC(N)=NC#N [Example 7, 2-(6-(2-(cyanoamidino)ethyl)phenyl)thio-1-(2-(cyanoamidino)ethyl)benzene] |
| 239 to 240 °C (dec.) | N=C(N)SCc1ccccc1C(=O)c1ccccc1CSC(=N)N (as salt: hydrobromid) [Example 2.25, 2-(6-(amidinothiomethyl)phenyl)carbonyl-1-(amidinothiomethyl)benzene dihydrobromide] |

Molecular target: T1, DMT1 (Homo sapiens, UniProt P49281)
T1 sequence (P49281 1-568): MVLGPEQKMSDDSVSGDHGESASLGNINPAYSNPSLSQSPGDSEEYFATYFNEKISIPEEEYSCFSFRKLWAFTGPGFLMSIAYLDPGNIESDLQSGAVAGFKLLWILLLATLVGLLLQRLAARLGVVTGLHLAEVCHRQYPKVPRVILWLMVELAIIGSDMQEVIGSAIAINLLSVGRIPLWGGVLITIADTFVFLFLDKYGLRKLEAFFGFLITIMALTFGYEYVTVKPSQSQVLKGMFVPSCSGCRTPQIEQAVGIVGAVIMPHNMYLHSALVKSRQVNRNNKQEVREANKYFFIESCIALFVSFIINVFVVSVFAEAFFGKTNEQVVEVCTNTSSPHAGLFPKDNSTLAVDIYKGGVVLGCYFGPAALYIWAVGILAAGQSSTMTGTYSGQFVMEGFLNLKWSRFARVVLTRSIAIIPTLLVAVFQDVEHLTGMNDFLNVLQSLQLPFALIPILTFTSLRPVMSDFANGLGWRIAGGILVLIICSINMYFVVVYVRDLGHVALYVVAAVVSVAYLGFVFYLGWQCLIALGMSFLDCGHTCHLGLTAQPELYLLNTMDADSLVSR
Assay: DMT1 Activity Assay (In Vitro Assay)
Type: cell-based
Settings: read-out: IC50 Activity Level
From the text: In particular, identification of the compounds of the invention ability to modulate, preferably to inhibit, DMT1 activity, can be assessed using a variety of in vitro and in vivo assays, for measuring uptake of reduced iron (Fe^2+). One such protocol involves the screening of chemical agents for ability to modulate the activity of DMT1 thereby identifying it as a modulating agent. The in vitro activity of DMT1 can be measured in cell based assays by either directly measuring iron flux (using a radioactively labelled iron ^55Fe) or by measuring the fluorescence of a cell permeable iron fluorophore such as calcein. Stable cell lines overexpressing DMT1 are exposed to ^55Fe or loaded with calcein and then compound is applied. […] Alternatively, in another format electrophysiological techniques can be used to measure the current or iron or other metals traversing the cell membrane with DMT1 in a Xenopus oocyte or other cell based system (Gunshin et al., Nature, 1997, 31; 388(6641):482-8).
This example discloses various in vitro assay for testing and profiling test agents against DMT1 stably expressed in cells of either an endogenous or recombinant origin. These assays can use stable cell lines overexpressing DMT1 or intestinal cells and intestinal tissue expressing endogenous DMT1. DMT1 function could also be assessed in other cell types that express DMT1. Of greatest relevance would be the erythrocytes (e.g. K562 cells) or hepatocytes (e.g. […]).
DMT1 function can be assessed in a number of ways, including monitoring fluorescence changes of an iron fluorophore (e.g. calcein), monitoring uptake of radiolabelled iron (55Fe or ^59Fe) (Picard et al., J. Biol. Chem., 2000, 275(46):35738-45 and Wetli et al., Chem. Biol. 2006 September; 13(9):965-72), or by assessing the current or transport of iron and other metals into the cells or tissues using standard electrophysiological techniques (Gunshin et al., Nature, 1997, 388(6641):482-8.).
Variations of these assays involve alterations of incubation times, the iron status of the cells and tissues (which may be modulated by chemical chelators or by harvesting from iron deficient animals), the metal cation detected and the pH of the reaction can generally be made by conventional techniques known to those skilled in the art.

| Structure (SMILES) | IC50 |
| --- | --- |
| N=C(N)SCc1ccccc1Sc1ccccc1CSC(=N)N [Example 1.1, 2-[2-(2-carbamimidoylsulfanylmethylphenylsulfanyl)benzyl]isothiourea dihydrobromide] | 100 to 1000 nM |
| N=C(N)SCc1cc(F)ccc1Oc1ccc(Cl)cc1CSC(=N)N [Example 2.11, 2-[2-(2-carbamimidoylsulfanylmethyl-4-chlorophenoxy)-5-fluorobenzyl]isothiourea dihydrobromide] | 100 to 1000 nM |
| N=C(N)SCCc1cc(F)ccc1Sc1ccc(F)cc1CSC(=N)N [Example 1.23, 2-[2-(2-carbamimidoylsulfanylethyl-4-fluorophenylsulfanyl)-5-fluorobenzyl]isothiourea dihydrobromide] | 100 to 1000 nM |
| N=C(N)SCc1ccccc1Sc1cc(F)ccc1CSC(=N)N [Example 1.12, 2-[2-(2-carbamimidoylsulfanylmethyl-5-fluorophenylsulfanyl)benzyl]-isothiourea dihydrobromide] | 100 to 1000 nM |
| CC(SC(=N)N)c1ccccc1Oc1ccccc1C(C)SC(=N)N (centres unmarked) [Example 1, 2-(1-{2-[2-(1-carbamimidoylsulfanylethyl)phenoxy]phenyl}ethyl)-isothiourea dihydrobromide] | ≥ 1000 nM |
| N=C(N)SCc1cc(F)ccc1Oc1cc(F)ccc1CSC(=N)N [Example 2.12, 2-[2-(2-carbamimidoylsulfanylmethyl-5-fluorophenoxy)-5-fluorobenzyl]isothiourea dihydrobromide] | 100 to 1000 nM |

Now from value to compound:

| IC50 | Structure (SMILES) |
| --- | --- |
| ≥ 1000 nM | N#CN=C(N)CCCc1ccccc1Sc1ccccc1CCCC(N)=NC#N [Example 7.2, 2-(6-(3-(cyanoamidino)propyl)phenyl)thio-1-(3-(cyanoamidino)propyl)benzene] |
| ≥ 1000 nM | N#CN=C(N)CCc1ccccc1Sc1ccccc1CCC(N)=NC#N [Example 7, 2-(6-(2-(cyanoamidino)ethyl)phenyl)thio-1-(2-(cyanoamidino)ethyl)benzene] |
| 100 to 1000 nM | N=C(N)SCc1ccccc1C(=O)c1ccccc1CSC(=N)N [Example 2.25, 2-(6-(amidinothiomethyl)phenyl)carbonyl-1-(amidinothiomethyl)benzene dihydrobromide] |

From US20080234384A1, “BIARYL AND BIHETEROARYL COMPOUNDS USEFUL IN TREATING IRON DISORDERS” (XENON PHARMACEUTICALS INC., priority 2007, published 2008)
